Test results taken from ChEMBL document CHEMBL1287761, “The novel benzopyran class of selective cyclooxygenase-2 inhibitors-part I: the first clinical candidate” (Bioorg Med Chem Lett, 2010).

Columns and labels:
[1] = molecular target: Prostaglandin G/H synthase 1 (Homo sapiens, UniProt P23219); test: Inhibition of human COX-1
[2] = molecular target: T1, Prostaglandin G/H synthase 2 (Homo sapiens, UniProt P35354); test: Inhibition of human COX-2
T1 sequence (P35354 whole entry): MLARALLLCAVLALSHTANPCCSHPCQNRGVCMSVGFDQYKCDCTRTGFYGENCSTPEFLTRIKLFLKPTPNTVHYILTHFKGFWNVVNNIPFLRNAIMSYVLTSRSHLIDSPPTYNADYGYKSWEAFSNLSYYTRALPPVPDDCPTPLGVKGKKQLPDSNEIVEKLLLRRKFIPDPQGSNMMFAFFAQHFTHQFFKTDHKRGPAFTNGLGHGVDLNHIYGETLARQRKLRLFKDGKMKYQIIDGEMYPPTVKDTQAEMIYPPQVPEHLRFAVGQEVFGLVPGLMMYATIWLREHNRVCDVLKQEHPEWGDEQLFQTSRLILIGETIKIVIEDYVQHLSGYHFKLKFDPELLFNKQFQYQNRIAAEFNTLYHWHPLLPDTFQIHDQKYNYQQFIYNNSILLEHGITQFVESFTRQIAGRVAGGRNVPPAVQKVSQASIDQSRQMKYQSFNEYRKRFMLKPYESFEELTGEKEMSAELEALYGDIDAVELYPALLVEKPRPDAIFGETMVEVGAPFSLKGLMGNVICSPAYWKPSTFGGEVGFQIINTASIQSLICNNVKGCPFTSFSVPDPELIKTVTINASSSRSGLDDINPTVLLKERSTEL

[3] = molecular target: COX-1/COX-2 (Homo sapiens) (UniProt P35354+P23219); test: Selectivity ratio of IC50 for human COX-1 to IC50 for human COX-2
Rattus norvegicus [4] = test: Antiinflammatory activity against carrageenan-induced inflammation in Sprague-Dawley rat air pouch model assessed as reduction in PGE2 level administered 3 hrs after carrageenan challenge; format: functional
Rattus norvegicus [5] = test: Analgesic activity against carrageenan-induced thermal hyperalgesia in Sprague-Dawley rat assessed as paw withdrawal latency administered 1 to 3 hrs after carrageenan challenge; format: functional
Rattus norvegicus [6] = organism: Rattus norvegicus; test: Antiinflammatory effect in complete Freund's adjuvant-induced Lewis rat arthritis model assessed as reduction in paw swelling by volume displacement plethysmometry; format: functional
[7] = Half life in rat; format: ADME, organism-based; details: in vivo
[8] = Half life in dog; format: ADME, organism-based, Canis lupus familiaris; details: in vivo
Rattus norvegicus [9] = test: Antiinflammatory activity against carrageenan-induced paw edema in Sprague-Dawley rat administered 1 to 3 hrs after carrageenan challenge; format: functional

COX-1/COX-2 (Homo sapiens), sequence (P23219 whole entry, looked up, one chain of several): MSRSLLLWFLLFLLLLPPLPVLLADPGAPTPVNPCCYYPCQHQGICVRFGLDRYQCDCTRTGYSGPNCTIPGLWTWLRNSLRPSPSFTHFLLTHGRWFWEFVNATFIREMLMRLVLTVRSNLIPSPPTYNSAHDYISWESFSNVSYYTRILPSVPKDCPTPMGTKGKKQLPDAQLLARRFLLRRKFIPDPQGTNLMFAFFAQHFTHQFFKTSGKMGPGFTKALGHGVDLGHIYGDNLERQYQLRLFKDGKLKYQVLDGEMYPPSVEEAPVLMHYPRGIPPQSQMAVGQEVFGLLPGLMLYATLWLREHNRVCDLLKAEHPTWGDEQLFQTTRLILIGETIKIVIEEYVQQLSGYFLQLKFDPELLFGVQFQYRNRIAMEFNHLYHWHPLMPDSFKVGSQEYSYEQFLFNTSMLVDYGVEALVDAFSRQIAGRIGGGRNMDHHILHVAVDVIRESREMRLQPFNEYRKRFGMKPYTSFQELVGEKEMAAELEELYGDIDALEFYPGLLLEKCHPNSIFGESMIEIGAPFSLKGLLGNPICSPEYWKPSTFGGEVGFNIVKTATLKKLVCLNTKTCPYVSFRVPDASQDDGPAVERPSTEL
Prostaglandin G/H synthase 1, sequence (P23219 whole entry): as the sequence (P23219 whole entry, looked up, one chain of several) above

O=C(O)C1=Cc2cc(Cl)cc(-c3ccccc3)c2OC1C(F)(F)F (stereo not drawn)
IC50 [1]: 3.11 µM | IC50 [2]: 110 nM

O=C(O)C1=Cc2cc(Cl)c(Cl)c(Cl)c2OC1C(F)(F)F (stereo not drawn)
IC50 [1]: 2.7 µM | IC50 [2]: 43 nM | Ratio IC50 [3]: 63

O=C(O)C1=Cc2cc(Cl)cc(C#Cc3ccccc3)c2OC1C(F)(F)F (stereo not drawn)
IC50 [1]: 33 µM | IC50 [2]: 140 nM

O=C(O)C1=Cc2c(Cl)ccc(Cl)c2OC1C(F)(F)F (stereo not drawn)
IC50 [1]: 11 µM | IC50 [2]: 100 nM | Ratio IC50 [3]: 110

Cc1ccc(-c2cc(C(F)(F)F)nn2-c2ccc(S(N)(=O)=O)cc2)cc1 [CELECOXIB]
inhibition (INH) (Rattus norvegicus [4]): 94% | ED50 (Rattus norvegicus [5]): 35 mg/kg | ED50 (Rattus norvegicus [6]): 0.3 mg/kg

O=C(O)C1=Cc2ccc(Cl)c(Cl)c2OC1C(F)(F)F (stereo not drawn)
IC50 [1]: 300 µM | IC50 [2]: 300000 nM | Ratio IC50 [3]: 1

O=C(O)C1=Cc2cc(Cl)cc(Cl)c2O[C@@H]1C(F)(F)F
half-life [7]: 606 min | half-life [8]: 1220 min | ED50 (Rattus norvegicus [4]; Rattus norvegicus, Sprague-Dawley, 3 h): 0.54 mg/kg | ED50 (Rattus norvegicus [9]): 7.1 mg/kg | ED50 (Rattus norvegicus [5]): 2.6 mg/kg | ED50 (Rattus norvegicus [6]): 0.03 mg/kg

O=C(O)C1=Cc2cc(Cl)ccc2OC1C(F)(F)F (stereo not drawn)
IC50 [1]: 29.2 µM | IC50 [2]: 320 nM | Ratio IC50 [3]: 90 | inhibition (INH) (Rattus norvegicus [4]): 98% | ED50 (Rattus norvegicus [5]): 6 mg/kg | ED50 (Rattus norvegicus [6]): 0.4 mg/kg

C=Cc1cc(Cl)cc2c1OC(C(F)(F)F)C(C(=O)O)=C2 (stereo not drawn)
IC50 [1]: 0.14 µM | IC50 [2]: 18 nM

O=C(O)C1=Cc2c(Cl)cc(Cl)cc2OC1C(F)(F)F (stereo not drawn)
IC50 [1]: 145 µM | IC50 [2]: 12000 nM | Ratio IC50 [3]: 12

NS(=O)(=O)c1ccc(-c2cc(Cl)cc3c2OC(C(F)(F)F)C(C(=O)O)=C3)cc1 (stereo not drawn)
IC50 [1]: 1.74 µM | IC50 [2]: 760 nM

C#Cc1cc(Cl)cc2c1OC(C(F)(F)F)C(C(=O)O)=C2 (stereo not drawn)
IC50 [1]: < 0.35 µM | IC50 [2]: 43 nM

O=C(O)C1=Cc2c(cc(Cl)c(Cl)c2Cl)OC1C(F)(F)F (stereo not drawn)
IC50 [1]: 0.88 µM | IC50 [2]: 6 nM | Ratio IC50 [3]: 136

O=C(O)C1=Cc2cc(Cl)c(Cl)cc2OC1C(F)(F)F (stereo not drawn)
IC50 [1]: 94.5 µM | IC50 [2]: 62 nM | Ratio IC50 [3]: 1520
